Read-outs that look alike come from different tables or passages of the source.
What was measured:
[1] = tested on: UA sulfation; experiment: Inhibition of UA sulfation (formation of UA-sulfate by HPLC-MS); assay type: biochemical; conditions: UA concentration 2 μM, triplicate
Procedure: FIG. 5. IC50 of glycyrrhetinic acid. UA concentration was 2 μM. Determination was done in triplicate.
Table 1. IC50 values for several inhibitors of UA sulfation. UA concentration was 2 μM. Determinations were done in triplicate, and formation of UA-sulfate was determined by HPLC-MS followed by nonlinear regression with the Hill equation.

[2] = colour and water solubility with time
[3] = Solubility of ursolic acid salts in hydrophilic solvents (clear saturated solution)
Procedure: The salts were weighed, mixed with the solvent, and incubated to reach clear saturated solution (37° C. for water and ethanol; 55° C. for PEG 400 and glycerol).

[4] = background statement; cited from earlier work
[5] = cited from earlier work
[6] = cited from earlier work; remark: listed apart in the source

Structure (SMILES) | Hill slope ([1]; Hill equation) | IC50 ([1]; Hill equation, read-out: IC50) [µM] | also measured
CC(=O)O[C@H]1CC[C@@]2(C)C(=CC(=O)[C@@H]3[C@@H]2CC[C@]2(C)C(=O)CC[C@@H]32)C1 [7-oxo-DHEA acetate] | 1.2 ± 0.06 | 20.2 ± 3.6 | –
C[C@]12CC[C@H](O)CC1=CC(=O)C1C2CC[C@]2(C)C(=O)CCC12 (some centres unmarked) [7-oxo-DHEA] | 1.2 ± 0.4 | 38.1 ± 1.2 | –
C[C@]12CC[C@H](O)CC1=CC[C@@H]1[C@@H]2CC[C@]2(C)C(=O)CC[C@@H]12 [DHEA, dehydroepiandrosterone] | 1.4 ± 0.1 | 1.2 ± 0.1 | –
CC1(C)[C@@H](O)CC[C@]2(C)[C@H]3C(=O)C=C4[C@@H]5C[C@@](C)(C(=O)O)CC[C@]5(C)CC[C@@]4(C)[C@]3(C)CC[C@@H]12 [Glycyrrhetinic acid] | 4.8 ± 3.5 | 14 ± 0.2 | IC50 ([1]; 95% CI, read-out: IC50 (FIG. 5)): 18.6 µM
C=C1C[C@@]23CC[C@H]4[C@@](C)(CCC[C@@]4(C)C(=O)O)[C@@H]2CC[C@]1(O)C3 [Steviol] | 1.4 ± 0.1 | 11.8 ± 1.8 | –
C[C@H]1CC[C@]2(NC1)O[C@H]1C[C@H]3[C@@H]4CC[C@H]5C[C@@H](O)CC[C@]5(C)[C@H]4CC[C@]3(C)[C@H]1[C@@H]2C [Tomatidine] | 0.5 ± 0.03 | 84.8 ± 5.1 | –
C[C@H]1[C@H](C)CC[C@]2(C(=O)O)CC[C@]3(C)C(=CC[C@@H]4[C@@]5(C)CC[C@H](O)C(C)(C)[C@@H]5CC[C@]43C)[C@H]12 [UAdC-O, ursolic acid dicholine complex] | – | – | stability [2]: unstable
C[C@H]1[C@H](C)CC[C@]2(C(=O)O)CC[C@]3(C)C(=CC[C@@H]4[C@@]5(C)CC[C@H](O)C(C)(C)[C@@H]5CC[C@]43C)[C@H]12 [UAdC-W, ursolic acid dicholine hydroxide hydrated complex] | – | – | stability [2]: stable
C[C@H]1[C@H](C)CC[C@]2(C(=O)[O-])CC[C@]3(C)C(=CC[C@@H]4[C@@]5(C)CC[C@H](O)C(C)(C)[C@@H]5CC[C@]43C)[C@H]12.C[N+](C)(C)CCO [UAmC, monocholine ursolate] | – | – | PEG400 solubility compared to UAK ([3]; PEG400, data not shown): lower solubility; ethanol solubility, comparison ([3]; ethanol, FIG. 1B): less than UAK
C[C@@H]1CC[C@]2(C(=O)O)CC[C@]3(C)C(=CCC4[C@@]5(C)CC[C@H](O)C(C)(C)C5CC[C@]43C)C2[C@H]1C (some centres unmarked) [Ursolic acid] | – | – | solubility in water [4]: less than 1 μg/mL; pKa of carboxylic acid [5]: 4.7; oral bioavailability [6]: less than 1%

From patent US12643922B2 (VIRGINIA COMMONWEALTH UNIVERSITY, priority 2021, dated 2026)
